The values below come from the supplement of paper PMC11208160.

A short description of the data set: recombinant UMI read abundance after kanamycin selection (control-corrected) (log10(CPM+1)); higher = more efficient recombination; extreme values may be limits of the assay; sequences stand for … in AGTGCAGAGAAAATCGGCCAGTTTTCTCTGCCTGCAGTCCGCATGCCGTGGGACCCCTTGGGTTCTAACCTGTTGCCTAGATTTATGCAGCGGACTGCCTTTCTCCCAAAGTGATAAACCGG…AGGTTGGTTTCACT; site = the 11-nt donor. The method in brief: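 In Escherichia coli, a pool of donor and donor-binding-loop pairs, each with a 12-nt UMI, was tested for the IS621 bridge recombinase. Plating was on IPTG (0.07 mM) plus kanamycin, or without selection, in two replicates. Recombinant UMIs were amplified by PCR across the donor–target junction and sequenced, and counts were reported as log10(CPM+1) after averaging and control-derived scaling.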
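Note: IS621 bridge recombinase in Escherichia coli cells against a fixed T5 target plasmid.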

As for “CCAGGTGCATGGACCGGTTTTCCCGGTAATCCGTATTTGAT (site TCAGGTGCTAT)”, the “recombinant UMI read abundance (log10)” value turned out to be 0.0184. “CCATCATCATGGACCGGTTTTCCCGGTAATCCGTATTTGCT (site CAATCATCTAG)”: the “recombinant UMI read abundance (log10)” value turned out to be 0.

Consider “CCATCATCATGGACCGGTTTTCCCGGTAATCCGTATTTGCT (site CCATCATCTAG)”, for which the “recombinant UMI read abundance (log10)” value was 0.

Consider “CCATCATCATGGACCGGTTTTCCCGGTAATCCGTATTTGCT (site CGATCATCTAG)”, for which the “recombinant UMI read abundance (log10)” value amounted to 0.

“CCATCATCATGGACCGGTTTTCCCGGTAATCCGTATTTGCT (site CTATCATCTAG)”: the “recombinant UMI read abundance (log10)” value came out at 0.0047.

Take “CCATCATCATGGACCGGTTTTCCCGGTAATCCGTATTTGTT (site CCATCATCTAA)”: the “recombinant UMI read abundance (log10)” value was found to be 0.00419. Next, “CCATCATCATGGACCGGTTTTCCCGGTAATCCGTATTTGTT (site CGATCATCTAG)”: 0; “CCATCGGCATGGACCGGTTTTCCCGGTAATCCGTATTTGTG (site CCATCGGCTCA)”: 1.73.

Take “CCATCTTCATGGACCGGTTTTCCCGGTAATCCGTATTTGCT (site CCATCTTCTAG)”: the “recombinant UMI read abundance (log10)” value worked out at 0.0559. As for “CCATCTTCATGGACCGGTTTTCCCGGTAATCCGTATTTGCT (site CGATCATCTAG)”, the “recombinant UMI read abundance (log10)” value was 0. On to “CCATGACCATGGACCGGTTTTCCCGGTAATCCGTATTTGGA (site CCATGACCTTC)”, for which the “recombinant UMI read abundance (log10)” value was determined as 0.023. In the case of “CCATGCTCATGGACCGGTTTTCCCGGTAATCCGTATTTGAA (site CAATGCTCTTT)”, the “recombinant UMI read abundance (log10)” value stood at 0.0121. Regarding “CCATGCTCATGGACCGGTTTTCCCGGTAATCCGTATTTGAA (site CCATGCTCTTT)”, the “recombinant UMI read abundance (log10)” value was found to be 0.703. “CCATGCTCATGGACCGGTTTTCCCGGTAATCCGTATTTGAA (site CGATGCTCTTT)”: the “recombinant UMI read abundance (log10)” value amounted to 0.0134. Consider “CCATGCTCATGGACCGGTTTTCCCGGTAATCCGTATTTGAA (site CTATGCTCTTT)”, for which the “recombinant UMI read abundance (log10)” value was 0.015. In the case of “CCATGTGCATGGACCGGTTTTCCCGGTAATCCGTATTTGAT (site CCAAGTGCTAT)”, the “recombinant UMI read abundance (log10)” value is 0.00273. Regarding “CCATGTGCATGGACCGGTTTTCCCGGTAATCCGTATTTGAT (site CCACGTGCTAT)”, the “recombinant UMI read abundance (log10)” value amounted to 0.215. In the case of “CCATGTGCATGGACCGGTTTTCCCGGTAATCCGTATTTGAT (site CCAGGTGCTAT)”, the “recombinant UMI read abundance (log10)” value was determined as 0.00344. As to “CCATGTGCATGGACCGGTTTTCCCGGTAATCCGTATTTGAT (site CCATGTGCTAT)”, the “recombinant UMI read abundance (log10)” value amounted to 1.09. Next, “CCATTAGCATGGACCGGTTTTCCCGGTAATCCGTATTTGTG (site CCATTAGCTCA)”: 0.183. Turning to “CCATTAGCATGGACCGGTTTTCCCGGTAATCCGTATTTGTG (site CCCTTAGCTCA)”, the “recombinant UMI read abundance (log10)” value was 0.00634. For “CCATTAGCATGGACCGGTTTTCCCGGTAATCCGTATTTGTG (site CCGTTAGCTCA)”, the “recombinant UMI read abundance (log10)” value was 0.0308. “CCATTAGCATGGACCGGTTTTCCCGGTAATCCGTATTTGTG (site CCTTTAGCTCA)”: the “recombinant UMI read abundance (log10)” value turned out to be 0.0119.

“CCATTCCCATGGACCGGTTTTCCCGGTAATCCGTATTTGAC (site CCATTCCCTGT)”: the “recombinant UMI read abundance (log10)” value came out at 0. Under “CCATTTGCATGGACCGGTTTTCCCGGTAATCCGTATTTGGC (site CCATTTGCTGC)” stands 0. For “CCCAAAGCATGGACCGGTTTTCCCGGTAATCCGTATTTGAT (site CCAAAAGCTAT)”, the “recombinant UMI read abundance (log10)” value is 0. Regarding “CCCAAAGCATGGACCGGTTTTCCCGGTAATCCGTATTTGAT (site CCCAAAGCTAT)”, the “recombinant UMI read abundance (log10)” value amounted to 0.774.

With “CCCAAAGCATGGACCGGTTTTCCCGGTAATCCGTATTTGAT (site CCGAAAGCTAT)”, the “recombinant UMI read abundance (log10)” value stood at 0. Under “CCCAAAGCATGGACCGGTTTTCCCGGTAATCCGTATTTGAT (site CCTAAAGCTAT)” stands 0.00406; under “CCCAATACATGGACCGGTTTTCCCGGTAATCCGTATTTGGC (site CCAAATACTGC)”, 0. For the sequence “CCCAATACATGGACCGGTTTTCCCGGTAATCCGTATTTGGC (site CCCAATACTGC)”, the “recombinant UMI read abundance (log10)” value is 0. Next, “CCCAATACATGGACCGGTTTTCCCGGTAATCCGTATTTGGC (site CCGAATACTGC)”: 0; “CCCAATACATGGACCGGTTTTCCCGGTAATCCGTATTTGGC (site CCTAATACTGC)”: 0. Next, “CCCACATCATGGACCGGTTTTCCCGGTAATCCGTATTTGTC (site CCCAAATCTGA)”: 0. For “CCCACATCATGGACCGGTTTTCCCGGTAATCCGTATTTGTC (site CCCACATCTGA)”, the “recombinant UMI read abundance (log10)” value stood at 0.453. Next, “CCCACATCATGGACCGGTTTTCCCGGTAATCCGTATTTGTC (site CCCAGATCTGA)”: 0. Take “CCCACATCATGGACCGGTTTTCCCGGTAATCCGTATTTGTC (site CCCATATCTGA)”: the “recombinant UMI read abundance (log10)” value stood at 0. For the sequence “CCCATAGCATGGACCGGTTTTCCCGGTAATCCGTATTTGTC (site CCCATAACTGA)”, the “recombinant UMI read abundance (log10)” value came out at 0.433. For “CCCATAGCATGGACCGGTTTTCCCGGTAATCCGTATTTGTC (site CCCATACCTGA)”, the “recombinant UMI read abundance (log10)” value amounted to 0. Regarding “CCCATAGCATGGACCGGTTTTCCCGGTAATCCGTATTTGTC (site CCCATAGCTGA)”, the “recombinant UMI read abundance (log10)” value came out at 1.56. As to “CCCATAGCATGGACCGGTTTTCCCGGTAATCCGTATTTGTC (site CCCATATCTGA)”, the “recombinant UMI read abundance (log10)” value came to 0. Take “CCCATATCATGGACCGGTTTTCCCGGTAATCCGTATTTGTT (site CCCATATCTAA)”: the “recombinant UMI read abundance (log10)” value worked out at 1.01.

In the case of “CCCATATCATGGACCGGTTTTCCCGGTAATCCGTATTTGTT (site CCCATATCTCA)”, the “recombinant UMI read abundance (log10)” value was 0.0132. For “CCCATATCATGGACCGGTTTTCCCGGTAATCCGTATTTGTT (site CCCATATCTGA)”, the “recombinant UMI read abundance (log10)” value was 0. For “CCCATATCATGGACCGGTTTTCCCGGTAATCCGTATTTGTT (site CCCATATCTTA)”, the “recombinant UMI read abundance (log10)” value was determined as 0.

Regarding “CCCATCTCATGGACCGGTTTTCCCGGTAATCCGTATTTGGG (site CCCATCTCTCC)”, the “recombinant UMI read abundance (log10)” value stood at 0. Under “CCCATCTCATGGACCGGTTTTCCCGGTAATCCGTATTTGGG (site CCCCTCTCTCC)” stands 0.078.

On to “CCCATCTCATGGACCGGTTTTCCCGGTAATCCGTATTTGGG (site CCCGTCTCTCC)”, for which the “recombinant UMI read abundance (log10)” value was 0.00519.

Turning to “CCCATCTCATGGACCGGTTTTCCCGGTAATCCGTATTTGGG (site CCCTTCTCTCC)”, the “recombinant UMI read abundance (log10)” value is 0.0111. For the sequence “CCCCACACATGGACCGGTTTTCCCGGTAATCCGTATTTGGA (site CCCCACACTTA)”, the “recombinant UMI read abundance (log10)” value is 0.369.

For “CCCCACACATGGACCGGTTTTCCCGGTAATCCGTATTTGGA (site CCCCACACTTC)”, the “recombinant UMI read abundance (log10)” value worked out at 0.275. Under “CCCCACACATGGACCGGTTTTCCCGGTAATCCGTATTTGGA (site CCCCACACTTG)” stands 0; under “CCCCACACATGGACCGGTTTTCCCGGTAATCCGTATTTGGA (site CCCCACACTTT)”, 0. With “CCCCACACATGGACCGGTTTTCCCGGTAATCCGTATTTGTG (site CCCCACACTAA)”, the “recombinant UMI read abundance (log10)” value is 0.0034. For “CCCCACACATGGACCGGTTTTCCCGGTAATCCGTATTTGTG (site CCCCACACTCA)”, the “recombinant UMI read abundance (log10)” value was 0.00514. For the sequence “CCCCACACATGGACCGGTTTTCCCGGTAATCCGTATTTGTG (site CCCCACACTGA)”, the “recombinant UMI read abundance (log10)” value was 0. Take “CCCCACACATGGACCGGTTTTCCCGGTAATCCGTATTTGTG (site CCCCACACTTA)”: the “recombinant UMI read abundance (log10)” value is 0.0257. As to “CCCCACTCATGGACCGGTTTTCCCGGTAATCCGTATTTGTA (site CCCCACACTTA)”, the “recombinant UMI read abundance (log10)” value came out at 0.

Regarding “CCCCACTCATGGACCGGTTTTCCCGGTAATCCGTATTTGTA (site CCCCACCCTTA)”, the “recombinant UMI read abundance (log10)” value amounted to 0.00571. Regarding “CCCCACTCATGGACCGGTTTTCCCGGTAATCCGTATTTGTA (site CCCCACGCTTA)”, the “recombinant UMI read abundance (log10)” value was determined as 0.00566. As to “CCCCACTCATGGACCGGTTTTCCCGGTAATCCGTATTTGTA (site CCCCACTCTTA)”, the “recombinant UMI read abundance (log10)” value was determined as 2.01. “CCCCATTCATGGACCGGTTTTCCCGGTAATCCGTATTTGGA (site CCCCATTCTTC)”: the “recombinant UMI read abundance (log10)” value stood at 0.274. As to “CCCCCTACATGGACCGGTTTTCCCGGTAATCCGTATTTGAG (site CACCCTACTCT)”, the “recombinant UMI read abundance (log10)” value was found to be 0.0202.

Regarding “CCCCCTACATGGACCGGTTTTCCCGGTAATCCGTATTTGAG (site CCCCCTACTCT)”, the “recombinant UMI read abundance (log10)” value was 0.0375. As for “CCCCCTACATGGACCGGTTTTCCCGGTAATCCGTATTTGAG (site CGCCCTACTCT)”, the “recombinant UMI read abundance (log10)” value was 0.0197. As to “CCCCCTACATGGACCGGTTTTCCCGGTAATCCGTATTTGAG (site CTCCCTACTCT)”, the “recombinant UMI read abundance (log10)” value was found to be 0.011.

Turning to “CCCCGGGCATGGACCGGTTTTCCCGGTAATCCGTATTTGGG (site CCCCGGGCTCC)”, the “recombinant UMI read abundance (log10)” value amounted to 0.182. Under “CCCGAAGCATGGACCGGTTTTCCCGGTAATCCGTATTTGTT (site CCCGAAGCTAA)” stands 1.18.
